Columns and labels:
[1] = biological target: T1, bromodomain factor 5 (LdBDF5), second bromodomain BD5.2 (Leishmania donovani, UniProt A0ACM8QMJ0); test: FP competition (also TSA shift; waterLOGSY and CPMG NMR positive, STD inconclusive); type: binding
T1 construct: gene CGC21_36735; BD5.2 (second bromodomain of the N-terminal tandem repeat)
T1 sequence (A0ACM8QMJ0 161-300): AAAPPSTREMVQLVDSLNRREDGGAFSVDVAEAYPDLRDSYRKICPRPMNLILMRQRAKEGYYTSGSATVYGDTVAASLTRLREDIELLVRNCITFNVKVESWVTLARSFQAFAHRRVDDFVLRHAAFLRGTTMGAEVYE

[2] = biological target: T2, bromodomain factor 5 (LdBDF5), first bromodomain BD5.1 (Leishmania donovani, UniProt A0ACM8QMJ0); test: ITC (also MST Kd […], FP competition IC50 […], TSA, waterLOGSY/STD/CPMG NMR); type: binding
T2 construct: gene CGC21_36735; BD5.1 (first bromodomain of the N-terminal tandem repeat)

IC50 [1] | Structure (SMILES) | Kd [2]
24.7 ± 6.2 µM | CCn1cc(-c2cccc(C(F)(F)F)c2)c2sc(C(=N)NC3CCS(=O)(=O)CC3)cc2c1=O [I-BRD9] | 
 | COc1ccc(CCc2nc3cc(-c4c(C)noc4C)ccc3n2C[C@H](C)N2CCOCC2)cc1Cl [SGC–CBP30] | 0.281 ± 0.0123 µM

From paper PMC10644352, “Bromodomain Factor 5 as a Target for Antileishmanial Drug Discovery” (ACS Infectious Diseases, 2023)
